pEC50: −log10 of the molar value.
How the values were obtained:
DYRK1A kinase = DYRK1A kinase (Homo sapiens, UniProt Q13627); assay: DYRK1A kinase activity (Ser/Thr 18 peptide Z-lyte FRET assay); type: biochemical; settings: recombinant DYRK1A, 30 μM ATP, one hour at room temperature;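 also: kinase activity read as coumarin/fluorescein emission ratio after development step, with unphosphorylated and phosphorylated peptide forms setting 0% and 100% controls, values from dose-response curves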
Method: Representative compounds were screened using the assay procedure for DYRK1A kinase activity as described below.
Each compound was dissolved in DMSO as a 10 mM stock and used to prepare compound source plates.
This is a non-radioactive assay using fluorescence resonance energy transfer (FRET) between coumarin and fluorescein to detect kinase activity which is represented as a ratio of coumarin emission/fluorescein emission.
The mixture was allowed to incubate with the representative compounds for one hour at room temperature. All reactions were performed in duplicate. Unphosphorylated (“0% Control”) and phosphorylated (“100% control”) forms of Ser/Thr 18 served as control reactions. Additionally, an 11-point dose-response curve of Staurosporine (1 uM top) was run to serve as a positive compound control.
After incubation, Development Reagent A was diluted in Development Buffer then added to the reaction and allowed to further incubate for one hour at room temperature.
Dose-response curves were generated and inhibitory concentration (IC50) values were calculated using non-linear regression curve fit in the Dotmatics' Studies Software (Bishops Stortford, UK).

GSK3β kinase = GSK3β kinase (Homo sapiens, UniProt P49841); assay: GSK3β kinase activity (Ser/Thr 09 peptide Z-lyte FRET assay); type: biochemical; settings: recombinant kinase, 46 μM ATP, one hour at room temperature; read-out: EC50
Sequence of GSK3β kinase (P49841 whole entry): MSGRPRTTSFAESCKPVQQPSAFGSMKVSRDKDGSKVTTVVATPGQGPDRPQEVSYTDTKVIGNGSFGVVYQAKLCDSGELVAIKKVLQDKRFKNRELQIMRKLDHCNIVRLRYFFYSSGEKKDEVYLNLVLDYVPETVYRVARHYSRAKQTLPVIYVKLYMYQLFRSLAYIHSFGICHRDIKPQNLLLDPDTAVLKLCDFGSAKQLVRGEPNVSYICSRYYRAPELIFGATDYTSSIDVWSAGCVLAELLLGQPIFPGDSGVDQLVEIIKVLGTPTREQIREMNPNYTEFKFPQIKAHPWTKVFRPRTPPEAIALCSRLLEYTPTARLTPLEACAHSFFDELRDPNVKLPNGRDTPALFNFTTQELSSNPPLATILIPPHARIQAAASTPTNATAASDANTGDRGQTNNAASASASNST

[1] = system: SW480 colon carcinoma cells; assay: Cell viability assay (CellTiter-Glo); settings: Homo sapiens; for pEC50: SW480, 96 h; for inhibition at 10 µM: SW480, read-out: percent inhibition at 10 μM
Method: Representative compounds were screened using the assay procedure to assess the effect on cell viability as described below.
SW480 colon carcinoma cells were transduced with a lentiviral vector expressing luciferase with a human Sp5 promoter consisting of a sequence of eight TCF/LEF binding sites. […] These stably transduced SW480 cells were expanded in cell culture and used for all further screening activities. Each compound was dissolved in DMSO as a 10 mM stock and used to prepare compound source plates.
For the Cell Viability Assays, the cells were plated at 2,000 cells/well in 384-well plates with a DMEM medium containing 1% fetal bovine serum, and 1% Penicillin-Streptomycin and incubated for four days hours at 37° C. and 5% CO2. Eight replicates of DMSO-treated cells served as controls and cells treated with compound were performed in duplicate.
After incubation, 10 μL of CellTiter-Glo (Promega) was added to each well allowed to incubate for approximately 12 minutes. This reagent “results in cell lysis and generation of a luminescent signal proportional to the amount of ATP present. The amount of ATP is directly proportional to the number of cells present in culture, in agreement with previous reports. The CellTiter-Glo Assay generates a “glow-type” luminescent signal, produced by the luciferase reaction (Promega.com)”.
Dose-response curves were generated and EC50 concentration values were calculated using non-linear regression curve fit in the GraphPad Prism (San Diego, Calif.) or Dotmatics' Studies Software (Bishops Stortford, UK).

[2] = system: Wnt-responsive Sp5-Luc reporter in SW480 colon carcinoma cells; assay: Screening assay for Wnt activity (Sp5-Luc reporter gene assay); settings: Homo sapiens; for pEC50: SW480; for inhibition at 10 µM: SW480, read-out: percent inhibition at 10 μM
Method: The screening assay for Wnt activity is described as follows.
SW480 colon carcinoma cells were transduced with a lentiviral vector expressing luciferase with a human Sp5 promoter consisting of a sequence of eight TCF/LEF binding sites. […] These stably transduced SW480 cells were expanded in cell culture and used for all further screening activities. Each compound was dissolved in DMSO as a 10 mM stock and used to prepare compound source plates. Serial dilution (1:3, 10-point dose-response curves starting from 10 μM) and compound transfer was performed using the ECHO 550 (Labcyte, Sunnyvale, Calif.) into 384-well white solid bottom assay plates (Greiner Bio-One) with appropriate DMSO backfill for a final DMSO concentration of 0.1%. […] Following incubation, 15 μl of BriteLite Plus luminescence reagent (Perkin Elmer) was added to each well of the 384-well assay plates. The plates were placed on an orbital shaker for 2 min and then luminescence was quantified using the Envision (Perkin Elmer) plate reader.

IL-6 = IL-6 inhibition in LPS-stimulated human peripheral blood mononuclear cells (HTRF); settings: Homo sapiens, PBMC; for pEC50: 22 h; for inhibition at 10 µM: read-out: percentage in parentheses after EC50 >10
Method: Each compound was dissolved in DMSO (Catalog # D8418-100 ml, Sigma-Aldrich, St. Louis, Mo.) as a 10 mM stock and used to prepare compound source plates. […] After 22 hour incubation, a mixture of anti-IL6 XL665 and anti-IL-6 Cryptate diluted in reconstitution buffer (Catalog #62IL6PEC, Cisbio Inc., Bedford, Mass.) was added to each well. […] All samples were processed in duplicate. […] EC50 was determined using software generated by Dotmatics Limited (Windhill Bishops Stortford Herts, UK) using the Levenberg-Marquardt 4 parameter fitting procedure with finite different gradients.

[3] = system: α-smooth muscle actin (aSMA) positive LL29 cells; assay: Inhibition of the fibrotic process: αSMA staining in TGF-β1 treated LL29 fibroblasts from IPF patients; settings: Homo sapiens, Fibroblast; for pEC50: 96 h; for inhibition at 10 µM: read-out: percentage in parentheses after EC50 >10

Row | Structure (SMILES) | pEC50 (DYRK1A kinase) | pEC50 (GSK3β kinase) | pEC50 [1] | pEC50 [2] | pEC50 (IL-6) | inhibition at 10 µM [1] [%] | inhibition at 10 µM [2] [%] | inhibition at 10 µM (IL-6) [%] | pEC50 [3] | inhibition at 10 µM [3] [%]
1 | COC1CCN(CC(=O)Nc2cc3cc(-c4cn(C)nn4)cnc3cn2)CC1 [Compound 3078, 2-(4-Methoxypiperidin-1-yl)-N-(3-(1-methyl-1H-1,2,3-triazol-4-yl)-1,7-naphthyridin-6-yl)acetamide] | 6.68 | 6.12 | < 5.00 | < 5.00 | < 5.00 | 16 | 11.7 | 7.9 | < 5.00 | 41
2 | CNC(=O)c1ccc(C(=O)Nc2cc3cc(-c4cn(C)nn4)cnc3cn2)cn1 [Compound 3092, N^2-Methyl-N-(3-(1-methyl-1H-1,2,3-triazol-4-yl)-1,7-naphthyridin-6-yl) pyridine-2,5-dicarboxamide] | 6.57 | < 5.00 | < 5.00 | 5.64 | < 5.00 | 10.5 |  | 7.4 | < 5.00 | 13.3
3 | CN1CCCN(c2cc(C(=O)Nc3cc4cc(-c5cn(C)nn5)cnc4cn3)ccn2)CC1 [Compound 3099, 2-(4-Methyl-1,4-diazepan-1-yl)-N-(3-(1-methyl-1H-1,2,3-triazol-4-yl)-1,7-naphthyridin-6-yl)isonicotinamide] | 6.81 | < 5.00 | < 5.00 | 6.16 | < 5.00 | 29.6 |  | 0 | < 5.00 | 44.4
4 | CN1CCC(N(C)c2cc(C(=O)Nc3cc4cc(-c5cn(C)nn5)cnc4cn3)ccn2)CC1 [Compound 3102, 2-(Methyl(1-methylpiperidin-4-yl)amino)-N-(3-(1-methyl-1H-1,2,3-triazol-4-yl)-1,7-naphthyridin-6-yl)isonicotinamide] | 7.06 | < 5.00 | 5.16 | < 5.00 | < 5.00 |  | 28.5 | 0 | < 5.00 | 50
5 | Cn1cnnc1-c1cnc2cnc(NC(=O)C3CCN(CCC(F)(F)F)CC3)cc2c1 [Compound 3111, N-(3-(4-Methyl-4H-1,2,4-triazol-3-yl)-1,7-naphthyridin-6-yl)-1-(3,3,3-trifluoropropyl)piperidine-4-carboxamide] | 6.42 | 5.67 | < 5.00 | < 5.00 | < 5.00 | 16.1 | 9.7 | 7.5 | < 5.00 | 46.4
6 | CC(C)CN1CCC(C(=O)Nc2cc3cc(-c4nnnn4C)cnc3cn2)CC1 [Compound 3118, 1-Isobutyl-N-(3-(1-methyl-1H-tetrazol-5-yl)-1,7-naphthyridin-6-yl) piperidine-4-carboxamide] | 5.83 | < 5.00 | < 5.00 | < 5.00 | < 5.00 | 8.3 | 31.2 | 5.3 | 5.31 | 
7 | CC(C(=O)Nc1cc2cc(-c3cncn3C)cnc2cn1)N1CCCC1 (stereo not drawn) [Compound 3134, N-(3-(1-Methyl-1H-imidazol-5-yl)-1,7-naphthyridin-6-yl)-2-(pyrrolidin-1-yl) propanamide] | 5.70 | 5.59 | < 5.00 | < 5.00 | < 5.00 | 23.8 | 10.2 | 3.9 | < 5.00 | 19.7
8 | CC(C)OCCC(=O)Nc1cc2cc(-c3cncn3C)cnc2cn1 [Compound 3136, 3-Isopropoxy-N-(3-(1-methyl-1H-imidazol-5-yl)-1,7-naphthyridin-6-yl) propanamide] | 6.91 | 6.01 | < 5.00 | < 5.00 | < 5.00 | 18.4 | 32 | 9.8 | 6.87 | 
9 | CC(C)Oc1ccc(C(=O)Nc2cc3cc(-c4cnc5n4CCNC5)cnc3cn2)cc1 [Compound 3240, 4-Isopropoxy-N-(3-(5,6,7,8-tetrahydroimidazo[1,2-a]pyrazin-3-yl)-1,7-naphthyridin-6-yl)benzamide] | 5.98 | < 5.00 | < 5.00 | < 5.00 | < 5.00 | 18.6 | 0 | 10.5 | < 5.00 | 15.9
10 | CN1CCN(c2cc(C(=O)Nc3cc4cc(-c5cnc(N)s5)cnc4cn3)ccn2)CC1 [Compound 3403, N-(3-(2-Aminothiazol-5-yl)-1,7-naphthyridin-6-yl)-2-(4-methylpiperazin-1-yl)isonicotinamide] | 6.24 | < 5.00 | 5.85 | 6.07 | < 5.00 |  |  | 1.8 | 5.61 | 
11 | CO[C@H]1CC[C@H](C(=O)Nc2cc3cc(-c4nnc(C)s4)cnc3cn2)CC1 [Compound 3425, trans-4-Methoxy-N-(3-(5-methyl-1,3,4-thiadiazol-2-yl)-1,7-naphthyridin-6-yl)cyclohexane-1-carboxamide] | 6.80 | 5.64 | < 5.00 | < 5.00 | < 5.00 | 29.9 | 0 | 9 | < 5.00 | 19.3
12 | Cc1nnc(-c2cnc3cnc(NC(=O)CN4C5CCC4CC5)cc3c2)s1 [Compound 3446, 2-(7-Azabicyclo[2.2.1]heptan-7-yl)-N-(3-(5-methyl-1,3,4-thiadiazol-2-yl)-1,7-naphthyridin-6-yl)acetamide] | 5.68 | < 5.00 | < 5.00 | < 5.00 | < 5.00 | 16.1 | 29.9 | 5.8 | < 5.00 | 16.9

Further molecules by rising pEC50 (DYRK1A kinase), results first:

Row | pEC50 (DYRK1A kinase) | pEC50 (GSK3β kinase) | pEC50 [1] | pEC50 [2] | pEC50 (IL-6) | Structure (SMILES) | inhibition at 10 µM [1] [%] | inhibition at 10 µM [2] [%] | inhibition at 10 µM (IL-6) [%] | pEC50 [3] | inhibition at 10 µM [3] [%]
13 | 6.92 | < 5.00 | < 5.00 | < 5.00 | < 5.00 | Cn1ncc(-c2cnc3cnc(NC(=O)c4ccnc(N5CCOCC5)c4)cc3c2)c1CN1CCOCC1 [Compound 3034, N-(3-(1-Methyl-5-(morpholinomethyl)-1H-pyrazol-4-yl)-1,7-naphthyridin-6-yl)-2-morpholinoisonicotinamide] | 10.5 | 0 | 9.5 | < 5.00 | 31.8
14 | 6.92 | < 5.00 | 5.39 | 6.22 | < 5.00 | CN(C)C1CCN(c2cc(C(=O)Nc3cc4cc(-c5cn(C)nn5)cnc4cn3)ccn2)CC1 [Compound 3096, 2-(4-(Dimethylamino)piperidin-1-yl)-N-(3-(1-methyl-1H-1,2,3-triazol-4-yl)-1,7-naphthyridin-6-yl)isonicotinamide] |  |  | 0 | < 5.00 | 32.7
15 | 6.92 | 5.00 | 5.40 | < 5.00 | < 5.00 | Cc1ncc(-c2cnc3cnc(NC(=O)c4ccnc(N5CCN(C)CC5)c4)cc3c2)s1 [Compound 3363, 2-(4-Methylpiperazin-1-yl)-N-(3-(2-methylthiazol-5-yl)-1,7-naphthyridin-6-yl)isonicotinamide] |  | 32.9 | 5.6 | < 5.00 | 34.7
16 | 7.00 | 6.33 | < 5.00 | < 5.00 | < 5.00 | Cc1nnc(-c2cnc3cnc(NC(=O)C4CCN(C(=O)c5ccccc5)CC4)cc3c2)s1 [Compound 3439, 1-Benzoyl-N-(3-(5-methyl-1,3,4-thiadiazol-2-yl)-1,7-naphthyridin-6-yl) piperidine-4-carboxamide] | 16.8 | 2.1 | 12.7 | < 5.00 | 14.3
17 | 7.17 | 5.82 | < 5.00 | < 5.00 | < 5.00 | CCN(CC)CC(=O)Nc1cc2cc(-c3cnn(C)c3CN3CCCCC3)cnc2cn1 [Compound 3003, 2-(Diethylamino)-N-(3-(1-methyl-5-(piperidin-1-ylmethyl)-1H-pyrazol-4-yl)-1,7-naphthyridin-6-yl)acetamide] | 35.9 | 33.5 | 7.3 | < 5.00 | 27.8
18 | 7.43 | < 5.00 | < 5.00 | < 5.00 | < 5.00 | Cc1ncc(C(=O)Nc2cc3cc(-c4cnc(C)n4C)cnc3cn2)s1 [Compound 3167, N-(3-(1,2-Dimethyl-1H-imidazol-5-yl)-1,7-naphthyridin-6-yl)-2-methylthiazole-5-carboxamide] | 8.1 | 0 | 5.4 | 5.69 | 

Reference: patent publication US10703748B2, “Diazanaphthalen-3-yl carboxamides and preparation and use thereof” (Samumed, LLC, priority 2017, dated 2020)
